Assay results reported in PMC8156151 (The European Respiratory Journal, 2021).
Like-named read-outs stand apart in the source and are kept apart here.

Tests used:
Format in all cases: in vivo, human
healthy subjects = test: Safety and tolerability (TEAEs), part 1, single inhaled dose
Method: (§1) Subjects were discharged 24 h post-dose (day 2) provided there were no safety concerns, and returned for three outpatient visits on days 3, 8 and 14 post-dose, with a post-study follow-up between days 26 and 30. Safety and PK assessments were made at predetermined time-points.
Following completion of dosing for the final subject in each dosing cohort, an interim dose review meeting was held with a safety committee consisting of the principal investigator, medical monitor, pharmacokineticist and statistician to review the safety, tolerability and PK data (study design schematic shown in figure 1). The study statistician and pharmacokineticist were unblinded at the end of each cohort in order to conduct the analyses required for dose review decisions. The primary end-point was the safety and tolerability of single or multiple doses of TD139 in healthy subjects or IPF patients, respectively.

[1] = Plasma pharmacokinetics, part 1 (healthy subjects)
Method: as §1
(§2) Full plasma PK profiles were conducted on days 1 (first day of dosing) and 14 (last day of dosing). […] Standard noncompartmental methods were applied to derive PK parameters using Phoenix WinNonlin version 6.3 (Certara, Sheffield, UK). […] Drug compartment measurements in BAL alveolar macrophages and fluid were determined as described previously.

[2] = TD139 concentration in BAL alveolar macrophages, ELF and plasma
Method: as §2

IL-13 = test: Plasma biomarker IL-13; details: for IL-13 raw data, Mean (SD) / IL-13 least square means % baseline±SEM: IPF patients
Method: All patients, investigators, sites and study sponsor personnel were blinded to the study group assignments throughout the study. Patients underwent study-specific assessments on days 2, 3, 7, 14 and 15, and a post-study assessment was carried out 26–30 days after the last day of the study period. Assessments included vital signs (supine blood pressure, pulse, oxygen saturation, oral temperature and respiratory rate), spirometry, 12-lead ECG, physical examination, laboratory safety screen (haematology, biochemistry, urinalysis and urinary drugs of abuse screen) and blood sampling for PK measurements. All adverse events and concomitant medications were recorded from the time of the screening visit until the post-study follow-up visit. BAL was performed at day −1 (24 h before the first dose) and at day 14 (2 h after the last dose). The BAL procedure was performed as per international guidelines. Briefly, 240 mL of 0.9% saline at room temperature was instilled in 40 mL aliquots into the right middle lobe and aspirated by suction after each aliquot.
BAL cells were separated from fluid by centrifugation, and cells were collected, stained with antibodies (supplementary material) and then fixed before analysis using a LSR Fortessa flow cytometer (Becton Dickinson, Franklin Lakes, NJ, USA). Data were analysed using FlowJo software (Tree Star, Ashland, OR, USA). Macrophages were identified as having high side scatter properties and human leukocyte antigen-DR positivity. Gal-3 expression (mean fluorescence intensity) was determined from the macrophage gate (supplementary figures S1 and S2). […] Samples were analysed by magnetic Luminex assay (R&D Systems, Minneapolis, MN, USA) or ELISA.
For part 2 of the study, placebos were combined from the three dose-specific cohorts into a pooled control group (n=9). For alveolar macrophage Gal-3 expression and the plasma biomarkers, ANCOVA was performed for percentage of baseline ((day 14/day 1)×100). The ANCOVA model included effects for treatment group and baseline (day 1) value. […] An additional analysis including dose as a continuous covariate was also performed. The Pearson correlation coefficient (r) and associated p-value were calculated for percentage of baseline and day 14 values between plasma biomarkers and alveolar macrophage Gal-3 expression. […] The analysis is exploratory and there was no pre-planned adjustment for multiple testing; the study was not powered for this. Alveolar macrophage Gal-3 expression was considered the primary exploratory analysis with the pre-selected biomarkers secondary. A Bonferroni correction for multiple testing of the secondary end-points comparing the 10 mg group with placebo gives a critical value of 0.0063. Data are presented as the difference in least square means with 95% confidence interval and p-value unless otherwise stated. All analyses were performed using SAS version 9.4 (SAS Institute, Cary, NC, USA). […]

[3] = healthy subjects, single inhaled 0.15 mg
[4] = healthy subjects, single inhaled 1.5 mg
[5] = healthy subjects, single inhaled 3 mg
[6] = healthy subjects, single inhaled 10 mg
[7] = healthy subjects, single inhaled 20 mg
[8] = healthy subjects, single inhaled 50 mg
[9] = human, inhaled or intranasal, single inhaled 1.5 mg, mean±SD
[10] = human, inhaled or intranasal, single inhaled 3 mg, mean±SD
[11] = human, inhaled or intranasal, single inhaled 10 mg, mean±SD
[12] = human, inhaled or intranasal, single inhaled 20 mg, mean±SD
[13] = human, inhaled or intranasal, single inhaled 50 mg, mean±SD

OC[C@H]1O[C@@H](S[C@@H]2O[C@H](CO)[C@H](O)[C@H](n3cc(-c4cccc(F)c4)nn3)[C@H]2O)[C@H](O)[C@@H](n2cc(-c3cccc(F)c3)nn2)[C@H]1O [TD139]
safety and tolerability (healthy subjects; healthy subjects, single doses up to 50 mg): safe and well tolerated
Subjects reporting ≥1 TEAE: Serious TEAE (healthy subjects; [3]): 0 n (%)
Subjects reporting ≥1 TEAE: TEAE (healthy subjects; [3]): 0 n (%)
Subjects reporting ≥1 TEAE: TEAE leading to withdrawal (healthy subjects; [3]): 0 n (%)
Subjects with TEAE by relationship to study IMP: Almost definite (healthy subjects; [3]): 0 n (%)
Subjects with TEAE by relationship to study IMP: Possible (healthy subjects; [3]): 0 n (%)
Subjects with TEAE by relationship to study IMP: Probable (healthy subjects; [3]): 0 n (%)
Subjects with TEAE by relationship to study IMP: Unlikely (healthy subjects; [3]): 0 n (%)
Subjects with TEAE by severity: Mild (healthy subjects; [3]): 0 n (%)
TEAEs (healthy subjects; [3]): 0 n
Subjects reporting ≥1 TEAE: Serious TEAE (healthy subjects; [4]): 0 n (%)
Subjects reporting ≥1 TEAE: TEAE (healthy subjects; [4]): 0 n (%)
Subjects reporting ≥1 TEAE: TEAE leading to withdrawal (healthy subjects; [4]): 0 n (%)
Subjects with TEAE by relationship to study IMP: Almost definite (healthy subjects; [4]): 0 n (%)
Subjects with TEAE by relationship to study IMP: Possible (healthy subjects; [4]): 0 n (%)
Subjects with TEAE by relationship to study IMP: Probable (healthy subjects; [4]): 0 n (%)
Subjects with TEAE by relationship to study IMP: Unlikely (healthy subjects; [4]): 0 n (%)
Subjects with TEAE by severity: Mild (healthy subjects; [4]): 0 n (%)
TEAEs (healthy subjects; [4]): 0 n
Subjects reporting ≥1 TEAE: Serious TEAE (healthy subjects; [5]): 0 n (%)
Subjects reporting ≥1 TEAE: TEAE (healthy subjects; [5]): 2 (50.0) n (%)
Subjects reporting ≥1 TEAE: TEAE leading to withdrawal (healthy subjects; [5]): 0 n (%)
Subjects with TEAE by relationship to study IMP: Almost definite (healthy subjects; [5]): 1 (25.0) n (%)
Subjects with TEAE by relationship to study IMP: Possible (healthy subjects; [5]): 0 n (%)
Subjects with TEAE by relationship to study IMP: Probable (healthy subjects; [5]): 0 n (%)
Subjects with TEAE by relationship to study IMP: Unlikely (healthy subjects; [5]): 1 (25.0) n (%)
Subjects with TEAE by severity: Mild (healthy subjects; [5]): 2 (50.0) n (%)
TEAEs (healthy subjects; [5]): 2 n
Subjects reporting ≥1 TEAE: Serious TEAE (healthy subjects; [6]): 0 n (%)
Subjects reporting ≥1 TEAE: TEAE (healthy subjects; [6]): 3 (75.0) n (%)
Subjects reporting ≥1 TEAE: TEAE leading to withdrawal (healthy subjects; [6]): 0 n (%)
Subjects with TEAE by relationship to study IMP: Almost definite (healthy subjects; [6]): 3 (75.0) n (%)
Subjects with TEAE by relationship to study IMP: Possible (healthy subjects; [6]): 2 (50.0) n (%)
Subjects with TEAE by relationship to study IMP: Probable (healthy subjects; [6]): 0 n (%)
Subjects with TEAE by relationship to study IMP: Unlikely (healthy subjects; [6]): 0 n (%)
Subjects with TEAE by severity: Mild (healthy subjects; [6]): 3 (75.0) n (%)
TEAEs (healthy subjects; [6]): 7 n
Subjects reporting ≥1 TEAE: Serious TEAE (healthy subjects; [7]): 0 n (%)
Subjects reporting ≥1 TEAE: TEAE (healthy subjects; [7]): 4 (100.0) n (%)
Subjects reporting ≥1 TEAE: TEAE leading to withdrawal (healthy subjects; [7]): 0 n (%)
Subjects with TEAE by relationship to study IMP: Almost definite (healthy subjects; [7]): 4 (100.0) n (%)
Subjects with TEAE by relationship to study IMP: Possible (healthy subjects; [7]): 1 (25.0) n (%)
Subjects with TEAE by relationship to study IMP: Probable (healthy subjects; [7]): 1 (25.0) n (%)
Subjects with TEAE by relationship to study IMP: Unlikely (healthy subjects; [7]): 0 n (%)
Subjects with TEAE by severity: Mild (healthy subjects; [7]): 4 (100.0) n (%)
TEAEs (healthy subjects; [7]): 7 n
Subjects reporting ≥1 TEAE: Serious TEAE (healthy subjects; [8]): 0 n (%)
Subjects reporting ≥1 TEAE: TEAE (healthy subjects; [8]): 4 (100.0) n (%)
Subjects reporting ≥1 TEAE: TEAE leading to withdrawal (healthy subjects; [8]): 0 n (%)
Subjects with TEAE by relationship to study IMP: Almost definite (healthy subjects; [8]): 4 (100.0) n (%)
Subjects with TEAE by relationship to study IMP: Possible (healthy subjects; [8]): 3 (75.0) n (%)
Subjects with TEAE by relationship to study IMP: Probable (healthy subjects; [8]): 0 n (%)
Subjects with TEAE by relationship to study IMP: Unlikely (healthy subjects; [8]): 0 n (%)
Subjects with TEAE by severity: Mild (healthy subjects; [8]): 4 (100.0) n (%)
TEAEs (healthy subjects; [8]): 10 n
biochemistry, haematology, vital signs or 12-lead ECG data (healthy subjects; part 1, healthy subjects): no clinically significant safety findings or treatment- or dose-related changes observed
incidence of cough (healthy subjects; part 1, healthy subjects): 11.1%
incidence of mild dysgeusia (most commonly occurring TEAE) (healthy subjects; part 1, healthy subjects): 36.1%
AUC(0-inf) [1, 9]: 17.9 ± 14 ng·h/mL
half-life [1, 9]: 1.13 ± 0.63 h
Cmax ([1]; human, inhaled or intranasal, single inhaled 1.5 mg, mean±SD, read-out: Cmax): 2.37 ± 1.48 ng/mL
AUC(0-inf) [1, 10]: 70.8 ± 22.7 ng·h/mL
half-life [1, 10]: 3 ± 0.82 h
Cmax ([1]; human, inhaled or intranasal, single inhaled 3 mg, mean±SD, read-out: Cmax): 8.21 ± 2.67 ng/mL
AUC(0-inf) [1, 11]: 184 ± 64.5 ng·h/mL
half-life [1, 11]: 1.19 ± 0.94 h
Cmax ([1]; human, inhaled or intranasal, single inhaled 10 mg, mean±SD, read-out: Cmax): 22.6 ± 8.69 ng/mL
AUC(0-inf) [1, 12]: 544 ± 114 ng·h/mL
half-life [1, 12]: 1.31 ± 1.8 h
Cmax ([1]; human, inhaled or intranasal, single inhaled 20 mg, mean±SD, read-out: Cmax): 81.1 ± 27 ng/mL
AUC(0-inf) [1, 13]: 1160 ± 532 ng·h/mL
half-life [1, 13]: 0.81 ± 0.8 h
Cmax ([1]; human, inhaled or intranasal, single inhaled 50 mg, mean±SD, read-out: Cmax): 126 ± 43.3 ng/mL
Cmax ([1]; single inhaled 0.15 mg, BLQ: below limit of quantification (0.5 ng·mL^−1)): BLQ
correlation between concentrations of TD139 in ELF and AMs (r) ([2]; all active cohorts, day 14): 0.89 (95% CI 0.70–0.96)
correlation between concentrations of TD139 in plasma (total) and AMs (r) ([2]; all active cohorts, day 14): 0.89 (95% CI 0.65–0.96)
Kp at 2 h ([2]; human, inhaled, concentration of TD139 in BAL macrophages (lung) relative to systemic exposure (blood), IPF patients, 2 h post-dosing on day 14): > 567
IL-13 difference in least square means % baseline (95% CI) (IL-13; 10 mg vs placebo, ANCOVA): −7.6 (−30.4–15.2) % baseline
IL-13 raw data, Mean (SD) (IL-13; Day 14, 0.3 mg): 1219.4 (155.7) pg/ml
IL-13 raw data, Mean (SD) (IL-13; Day 14, 3 mg): 1476.6 (140.99) pg/ml
IL-13 raw data, Mean (SD) (IL-13; Day 14, 10 mg): 1358.8 (149.34) pg/ml
IL-13 least square means % baseline±SEM (IL-13; day 14, 0.3 mg once daily): 87.4±8.8 % baseline
IL-13 least square means % baseline±SEM (IL-13; day 14, 3 mg once daily): 100.4±9.5 % baseline
IL-13 least square means % baseline±SEM (IL-13; day 14, 10 mg once daily): 97.6±8.8 % baseline
